Laboratory results taken from article PMC3790769, “Ansamitocin P3 Depolymerizes Microtubules and Induces Apoptosis by Binding to Tubulin at the Vinblastine Site” (PLoS ONE, 2013).

Target: T1, tubulin
T1 construct: tubulin isolated from goat brain (alpha-beta dimer); with alpha-tubulin/beta-tubulin heterodimer
Experiment: intrinsic tryptophan fluorescence quenching of purified tubulin; supported by reduced DTNB cysteine modification
Type: binding, Capra hircus

`COc1cc2cc(c1Cl)N(C)C(=O)C[C@H](OC(=O)C(C)C)[C@]1(C)O[C@H]1[C@H](C)[C@@H]1C[C@@](O)(NC(=O)O1)[C@H](OC)/C=C/C=C(\C)C2` [Ansamitocin P3] was tested, and the Kd was 1300 ± 700 nM.
